In patent US5756491A, “Antiviral cobalt-organic compounds” (priority 1991, dated 1998):

Legend:
[1] = test system: human foreskin fibroblast (HFF) cell monolayers; test: Toxicity effects controls: sham-inoculated compound-treated HFF monolayers; type: cell-based; for Toxicity effects: key: +: toxic; -: no toxicity; ±: mild toxicity; T: toxicity effects interfered with CPE rating
Description: (§1) With sufficient stirring, all the compounds completely dissolved.
In the tables, the symbols have the meaning indicated: […]

HSV-1 McKrae Strain = test: Direct virucidal efficacy against HSV-1 on HFF monolayers; type: cell-based; details: for effective virucidal concentration IC50 / effective virucidal concentration IC90: HSV-1
Description: HSV-1 McKrae Strain was diluted to a final concentration of 10^5 PFU/ml in minimal essential medium (MEM). Hereinafter, this dilution is referred to as the HSV-1 Suspension for convenience.
as §1
Each of the drug solutions were mixed with the HSV-1 Suspension in a 1:1 ratio. The drug and HSV-1 Suspension mixture was incubated at 37° C. for thirty minutes with agitation every ten minutes. After the incubation, fifty microliter aliquots were overlaid onto triplicate confluent human foreskin fibroblast (HFF) cell monolayers. The inoculum was absorbed for thirty minutes and then a medium containing the appropriate drug concentration in MEM was added to the monolayers to a final volume of 0.5 milliliters per culture-well. The monolayers were incubated at 37° C. The developing HSV-1 Cytopathology was monitored daily for two days by inverted light microscopy. Titers were calculated by multiple regression analysis. All data is presented as the average PFU/ml reduction at 24 and/or 48 hours after inoculation (PI).
1. HSV-1 inoculated, non-compound treated HFF monolayers were included as "positive controls"; and […]

RE strain HSV-1 = test: HSV-1 recovery from tear film, cornea and trigeminal ganglia of treated rabbits; type: in vivo, NZW rabbit; details: Example 4
Description: The specified number of NZW rabbits (1.5-2.0 kg) were used. Animals were received at least two days prior to inoculation to allow them to accommodate to the conditions in the vivarium facility. This conditioning of the animals prior to inoculation minimizes animal variability. After the accommodation, the animals received a slit-lamp examination to exclude any animals with pre-existing anterior segment ocular defects. Animals were bi-laterally inoculated by intrastromal injection of 10^5 PFU RE strain HSV-1. The animals were then replaced individually into cages.
[…] This was carried out by obtaining tear film by swabbing the lower and upper conjunctival sacs and retaining the swab in the nasal fornix for 10 seconds. The swabs were eluted individually in HBSS. 50 μl aliquots of the virus-HBSS eluate were absorbed under confluent HFF cell monolayers for 5 minutes. The monolayers were hydrated with MEM, incubated at 37° C. and observed daily for 1 to 2 weeks to detect developing cytopathology consistent with HSV infection (HSV CPE).
On day 10 PI, the animals were sacrificed, the corneal epithelium was scraped from the eyes and epithelial and corneal stromal cultures were preformed on HFF cell monolayers. The separation of epithelial virus from deeper stromal virus infection allows for analysis of HSV in these distinct corneal layers. Corneal epithelial and stromal co-cultures were evaluated daily by inverted light microscopy.
At sacrifice, trigeminal ganglia were removed, washed in HBSS, minced and floated over duplicate HFF cell monolayers. The cell co-cultures were monitored by inverted light microscopy for 2 weeks. Negative cultures were blind passaged twice at 7 day intervals. Detection of HSV CPE in the whole-cell co-cultures was scored either positive or negative. HSV recovery from inventive compound-treated, TFT-treated and placebo-treated trigeminal ganglia was compared and differences in recovery rates analyzed.
On day 7 PI, the animals were sacrificed, the corneal epithelium was scraped from the eyes and epithelial and corneal stromal cultures were performed on HFF cell monolayers. The separation of epithelial virus from deeper stromal virus infection allows for analysis of HSV in these distinct corneal layers. Corneal epithelial and stromal co-cultures were evaluated daily by inverted light microscopy.

HFF cells [2] = test: Neutral red uptake toxicity; type: cell-based, human; details: stationary cells
HFF cells [3] = test: MTT assay for cell cytotoxicity; type: cell-based, human; details: stationary cells
Description: Twenty-four hours prior to assay, HFF cells are plated into 96 well plates at a concentration of […] cells per well. After 24 h, the media is aspirated and […] of drug is added to the first row of wells and then diluted serially 1:5 using the automated Cetus Liquid Handling System in a manner similar to that used in the CPE assay. The plates are then incubated in a CO2 incubator at 37° C. for seven days. At this time, each well receives 50 microliters of […] solution of MTT in Dulbecco's Phosphate Buffered Saline. The plates are then incubated for an additional four hours. At this time, the media is removed and replaced with 100 μl of 0.04N hydrochloric acid in isopropanol. After shaking briefly, the plates are then read on a plate reader at 550 nm.

HFF cells [4] = test: Cell proliferation assay; type: cell-based, human; details: rapidly growing cells
Description: Twenty-four hours prior to assay, HFF cells are seeded in 6-well plates at a concentration of 2.5×10^4 cells per well in MEM containing 10% FBS. On the day of the assay, drugs are diluted serially in MEM containing 10% FBS at increments of 1:5 covering a range from 100 μg/ml to 0.03 μg/ml. […] The media from the wells is then aspirated and 2 ml of each drug concentration is then added to each well. The cells are then incubated in a Co2 incubator at 37° C. for 72 h. At the end of this time, the media-drug solution is removed and the cells washed. […] The cell-media mixture is then pipetted up and down vigorously to break up the cell suspension and 0.2 ml of the mixture is added to 9.8 ml of Isoton III and counted using a Coulter Counter. Each sample is counted three times with three replicate wells per sample.

In the case of `CC([O-])=CC(C)=NCCN=C(C)C=C(C)[O-].[Cl-].[Co+3].c1c[nH]cn1.c1c[nH]cn1` [Compound 82], the toxicity effects ([1]; Experiment 1 (Table 1), 24 h PI, 0.001 mg/ml) is reported as “-”, the toxicity effects ([1]; Experiment 1 (Table 1), 24 h PI, 0.01 mg/ml) is reported as “-” and the toxicity effects ([1]; Experiment 1 (Table 1), 24 h PI, 0.1 mg/ml) is reported as “-”. The toxicity effects ([1]; Experiment 1 (Table 1), 24 h PI, 1 mg/ml) was “-”, the toxicity effects ([1]; Experiment 1 (Table 1), 24 h PI, 10 mg/ml) was “-” and the toxicity effects ([1]; Experiment 1 (Table 1), 48 h PI, 0.001 mg/ml) was “-”. For the same compound, the toxicity effects ([1]; Experiment 1 (Table 1), 48 h PI, 0.01 mg/ml) was “-”, the toxicity effects ([1]; Experiment 1 (Table 1), 48 h PI, 0.1 mg/ml) was “-” and the toxicity effects ([1]; Experiment 1 (Table 1), 48 h PI, 1 mg/ml) was “-”. For the same compound, the “toxicity compared with 23 and 76” value ([1]; Experiment 1 comment, less than the observed toxicity of 23 and 76) was “one order of magnitud”, the “virucidal efficacy (HSV-1 titer)” value (HSV-1 McKrae Strain; Experiment 1 (Table 2), 24 h PI, 0.001 mg/ml) was 10^5 PFU/ml and the “virucidal efficacy (HSV-1 titer)” value (HSV-1 McKrae Strain; Experiment 1 (Table 2), 24 h PI, 0.1 mg/ml) was 10^2 PFU/ml. For the same compound, the “virucidal efficacy (HSV-1 titer)” value (HSV-1 McKrae Strain; Experiment 1 (Table 2), 24 h PI, 10 mg/ml) was 0 PFU/ml, the “virucidal efficacy (HSV-1 titer)” value (HSV-1 McKrae Strain; Experiment 1 (Table 2), 24 h PI, .01 mg/ml) was 10^4 PFU/ml and the “virucidal efficacy (HSV-1 titer)” value (HSV-1 McKrae Strain; Experiment 1 (Table 2), 48 h PI, 1 mg/ml) was 10^5 PFU/ml. The “virucidal efficacy (HSV-1 titer)” value (HSV-1 McKrae Strain; Experiment 1 (Table 2), 48 h PI, 10 mg/ml) was “O/T”, the “effective virucidal concentration IC50” value (HSV-1 McKrae Strain; Experiment 1 (Table 3)) was 100 µg/mL and the “effective virucidal concentration IC90” value (HSV-1 McKrae Strain; Experiment 1 (Table 3)) was 1000 µg/mL. For the same compound, the “virucidal efficacy (IC50) compared with 23 and 76” value (HSV-1 McKrae Strain; Experiment 1 comment, less than that observed for 23 and 76) was “one order of magnitude less”, the “virucidal efficacy (HSV-1 titer)” value (HSV-1 McKrae Strain; Experiment 2 (Table 5), 24 h PI, 0.001 mg/ml) was 10^4 PFU/ml and the “virucidal efficacy (HSV-1 titer)” value (HSV-1 McKrae Strain; Experiment 2 (Table 5), 24 h PI, 0.1 mg/ml) was 10^2 PFU/ml. The “virucidal efficacy (HSV-1 titer)” value (HSV-1 McKrae Strain; Experiment 2 (Table 5), 24 h PI, 10 mg/ml) was 0 PFU/ml, the “virucidal efficacy (HSV-1 titer)” value (HSV-1 McKrae Strain; Experiment 2 (Table 5), 48 h PI, 1 mg/ml) was 10^5 PFU/ml and the “effective virucidal concentration IC50” value (HSV-1 McKrae Strain; Experiment 2 (Table 6)) was 100 µg/mL. The “effective virucidal concentration IC90” value (HSV-1 McKrae Strain; Experiment 2 (Table 6)) was 1000 µg/mL and the “recovery of HSV-1 in tear film” value (RE strain HSV-1) was “reduced the recovery of HSV-1 in tear film”.
With `CC(=NCCN=C(C)C(Cl)=C(C)[O-])C(Cl)=C(C)[O-].[Br-].[Co+3].c1c[nH]cn1.c1c[nH]cn1` [Compound 93] the toxicity effects ([1]; Experiment 4 (Table 10), 24 h, 0.001 mg/ml) was “-”, the toxicity effects ([1]; Experiment 4 (Table 10), 24 h, 0.01 mg/ml) was “-” and the toxicity effects ([1]; Experiment 4 (Table 10), 24 h, 0.1 mg/ml) was “-”. For the same compound, the toxicity effects ([1]; Experiment 4 (Table 10), 24 h, 0.5 mg/ml) was “-”, the toxicity effects ([1]; Experiment 4 (Table 10), 24 h, 1 mg/ml) was “-” and the toxicity effects ([1]; Experiment 4 (Table 10), 48 h, 0.001 mg/ml) was “-”. The toxicity effects ([1]; Experiment 4 (Table 10), 48 h, 0.01 mg/ml) was “-”, the toxicity effects ([1]; Experiment 4 (Table 10), 48 h, 0.5 mg/ml) was “-” and the toxicity effects ([1]; Experiment 4 (Table 10), 48 h, 1 mg/ml) was “-”. The toxicity effects ([1]; Experiment 6 (Table 15), 48 h, 0.001 mg/ml) was “-”, the toxicity effects ([1]; Experiment 6 (Table 15), 48 h, 0.01 mg/ml) was “-” and the “toxicity to HFF monolayers (comment)” value ([1]; Experiment 6 comment, more pronounced at 0.5 and 0.1 mg/ml, cell rounding, detaching, granularity) was “toxicity observed”. For the same compound, the “virucidal efficacy (HSV-1 titer)” value (HSV-1 McKrae Strain; Experiment 4 (Table 9), 24 h PI, Run 1, 0.001 mg/ml) was 10^5 PFU/ml, the “virucidal efficacy (HSV-1 titer)” value (HSV-1 McKrae Strain; Experiment 4 (Table 9), 24 h PI, Run 1, 0.5 mg/ml) was 10^2 PFU/ml and the “virucidal efficacy (HSV-1 titer)” value (HSV-1 McKrae Strain; Experiment 4 (Table 9), 24 h PI, Run 1, 1 mg/ml) was 0 PFU/ml. The “virucidal efficacy (HSV-1 titer)” value (HSV-1 McKrae Strain; Experiment 4 (Table 9), 24 h PI, Run 1, 5 mg/ml) was 0 PFU/ml, the “virucidal efficacy (HSV-1 titer)” value (HSV-1 McKrae Strain; Experiment 4 (Table 9), 24 h PI, Run 2, 0.01 mg/ml) was 10^2 PFU/ml and the “virucidal efficacy (HSV-1 titer)” value (HSV-1 McKrae Strain; Experiment 4 (Table 9), 24 h PI, Run 2, 0.1 mg/ml) was 0 PFU/ml. The “virucidal efficacy (HSV-1 titer)” value (HSV-1 McKrae Strain; Experiment 4 (Table 9), 24 h PI, Run 2, 0.5 mg/ml) was 0 PFU/ml, the “virucidal efficacy (HSV-1 titer)” value (HSV-1 McKrae Strain; Experiment 4 (Table 9), 24 h PI, Run 2, 1 mg/ml) was 0 PFU/ml and the “virucidal efficacy (HSV-1 titer)” value (HSV-1 McKrae Strain; Experiment 4 (Table 9), 24 h PI, Run 2, 5 mg/ml) was 0 PFU/ml. The “effective virucidal concentration IC50” value (HSV-1 McKrae Strain; Experiment 4 (Table 11)) was 500 µg/mL, the “effective virucidal concentration IC90” value (HSV-1 McKrae Strain; Experiment 4 (Table 11)) was > 1000 µg/mL and the “virucidal efficacy (HSV-1 titer)” value (HSV-1 McKrae Strain; Experiment 6 (Table 16), 24 h PI, 0.1 mg/ml) was 10^2 PFU/ml. The “virucidal efficacy (HSV-1 titer)” value (HSV-1 McKrae Strain; Experiment 6 (Table 16), 24 h PI, 0.5 mg/ml) was 0 PFU/ml, the “virucidal efficacy (HSV-1 titer)” value (HSV-1 McKrae Strain; Experiment 6 (Table 16), 24 h PI, 1 mg/ml) was 0 PFU/ml and the “effective virucidal concentration IC50” value (HSV-1 McKrae Strain; Experiment 6 (Table 17)) was 100 µg/mL. The “efficacy in virucidal assay (comment)” value (HSV-1 McKrae Strain; Experiment 6 comment, reduction in toxicity resulted in it) was “reduction in efficacy”, the “toxicity IC50, neutral red uptake” value (HFF cells [2]) was 27.3 MCG/ML and the “toxicity IC50, MTT toxicity” value (HFF cells [3]) was 65.0 MCG/ML. For the same compound, the “toxicity IC50, cell proliferation” value (HFF cells [4]) was 25.0 MCG/ML.
